This is an account of results in patent publication US11306078B2, “Piperidine CXCR7 receptor modulators” (IDORSIA PHARMACEUTICALS LTD., priority 2016, dated 2022).

Usually IC50 stands for the concentration that gives 50% inhibition. The low end stands for greater potency, the high end for weaker potency.

The target of the first assay is human chemokine receptor CXCR7 (Homo sapiens (Human), UniProt P25106). Put plainly: Tango CXCR7-bla U2OS beta-arrestin recruitment assay (beta-lactamase reporter, FRET), antagonism of CXCL12/SDF1-α.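 Note: compounds preincubated 15 min before CXCL12 addition, then 22 h at 37 °C, FRET emission ratio read with CCF4-AM substrate after 2 h.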 The class given is cell-based. Conditions: antagonistic effect on CXCR7; Tango CXCR7-bla U2OS cells, CXCL12/SDF1-α at its EC80. For orientation: Activated receptors often draw arrestin, which recruitment assays turn into a signal.
Chain of human chemokine receptor CXCR7 (P25106 whole entry): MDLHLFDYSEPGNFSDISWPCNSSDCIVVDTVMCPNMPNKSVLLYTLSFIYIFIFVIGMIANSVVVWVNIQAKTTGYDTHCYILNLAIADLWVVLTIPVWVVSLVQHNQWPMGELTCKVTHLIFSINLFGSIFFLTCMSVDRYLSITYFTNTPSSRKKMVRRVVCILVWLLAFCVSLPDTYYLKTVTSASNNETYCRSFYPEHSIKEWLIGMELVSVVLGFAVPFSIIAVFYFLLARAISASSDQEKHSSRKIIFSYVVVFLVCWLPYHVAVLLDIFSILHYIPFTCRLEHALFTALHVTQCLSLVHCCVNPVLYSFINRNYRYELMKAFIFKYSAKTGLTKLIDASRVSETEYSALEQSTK
`O=C(N[C@@H]1CCN(C2CCCCC2)C[C@H]1C(=O)NC1(c2ccccn2)CC1)c1cn(-c2ccc(F)cc2F)nn1` (single isomer, unassigned) [Example 1.165a, (3R*,4R*)-1-Cyclohexyl-4-{[1-(2,4-difluoro-phenyl)-1H-[1,2,3]triazole-4-carbonyl]-amino}-piperidine-3-carboxylic acid (1-pyridin-2-yl-cyclopropyl)-amide] showed a 50% inhibitory concentration (IC50) of 43 nM. Same read-out and setting: for `O=C(N[C@@H]1CCN(C2CCCC2)C[C@H]1C(=O)NC1(c2ccccn2)CC1)c1cn(-c2ccc(F)cc2F)nn1` (racemic) [Example 1.166, rac-(3R*,4R*)-1-Cyclopentyl-4-{[1-(2,4-difluoro-phenyl)-1H-[1,2,3]triazole-4-carbonyl]-amino}-piperidine-3-carboxylic acid (1-pyridin-2-yl-cyclopropyl)-amide] the value was 52 nM; for `Cc1cc(C)nc(C2(NC(=O)[C@H]3CN(CC4CC4)CC[C@@H]3NC(=O)c3cc(-c4ccc(F)cc4F)on3)CC2)n1` [Example 1.185, (3S,4S)-1-Cyclopropylmethyl-4-{[5-(2,4-difluoro-phenyl)-isoxazole-3-carbonyl]-amino}-piperidine-3-carboxylic acid [1-(4,6-dimethyl-pyrimidin-2-yl)-cyclopropyl]-amide], 9 nM; for `C[C@@H]1CC[C@H]1N1CC[C@@H](NC(=O)c2cc(-c3ccc(F)cc3F)on2)[C@H](C(=O)N(C)C)C1` [Example 2.016b], 63 nM.

As for `CC(NC(=O)[C@H]1CN(CC2CC2)CC[C@@H]1NC(=O)c1cc(-c2ccc(F)cc2F)on1)c1ccon1` (stereo partly drawn) [Example 4.049], the IC50 worked out at 148 nM. Against the preceding molecule, the IC50 is about 2.3-fold higher. The molecule `CN(C)CCNC(=O)[C@@H]1CN(C2CCCCC2)CC[C@H]1NC(=O)c1cc(-c2ccc(F)cc2F)on1` (racemic) [Example 1.023, rac-(3R*,4R*)-1-Cyclohexyl-4-{[5-(2,4-difluoro-phenyl)-isoxazole-3-carbonyl]-amino}-piperidine-3-carboxylic acid (2-dimethylamino-ethyl)-amide] returned an IC50 of 743 nM. On the same count and under the same terms, the value for `COCC(C)(C)NC(=O)[C@@H]1CN(C2CCCCC2)CC[C@H]1NC(=O)c1cc(-c2c(F)cc(F)cc2F)on1` (single isomer, unassigned) [Example 1.111b, (3R*,4R*)-1-Cyclohexyl-4-{[5-(2,4,6-trifluoro-phenyl)-isoxazole-3-carbonyl]-amino}-piperidine-3-carboxylic acid (2-methoxy-1,1-dimethyl-ethyl)-amide] was 114 nM; that for `O=C(N[C@@H]1CCN(C2CCCCC2)C[C@H]1C(=O)NCc1cnco1)c1cc(-c2ccc(F)cc2F)on1` (racemic) [Example 1.035, rac-(3R*,4R*)-1-Cyclohexyl-4-{[5-(2,4-difluoro-phenyl)-isoxazole-3-carbonyl]-amino}-piperidine-3-carboxylic acid (oxazol-5-ylmethyl)-amide] was 520 nM. Still for that read-out and setting: for `CCc1noc(CNC(=O)[C@@H]2CN(C3CCCCC3)CC[C@H]2NC(=O)c2cc(-c3ccc(F)cc3F)on2)n1` (racemic) [Example 1.047, rac-(3R*,4R*)-1-Cyclohexyl-4-{[5-(2,4-difluoro-phenyl)-isoxazole-3-carbonyl]-amino}-piperidine-3-carboxylic acid (3-ethyl-[1,2,4]oxadiazol-5-ylmethyl)-amide] the value was 127 nM; for `O=C(N[C@H]1CCN(CC2CC2)C[C@@H]1C(=O)N1CCCC1c1ncccn1)c1cc(-c2ccc(F)cc2F)on1` (stereo partly drawn) [Example 4.078b], 15 nM; for `O=C(N[C@@H]1CCN(CC2CC2)C[C@H]1C(=O)NC1(c2ncccn2)CC1)c1cc(-c2c(F)cc(F)cc2F)on1` (racemic) [Example 1.177, rac-(3R*,4R*)-1-Cyclopropylmethyl-4-{[5-(2,4,6-trifluoro-phenyl)-isoxazole-3-carbonyl]-amino}-piperidine-3-carboxylic acid (1-pyrimidin-2-yl-cyclopropyl)-amide], 5 nM. Turning to `O=C(N[C@H]1CCN(CC2CC(F)(F)C2)C[C@@H]1C(=O)NC1(c2ncccn2)CC1)c1cc(-c2ccc(F)cc2F)on1` [Example 2.101], the IC50 was determined as 29 nM.

`O=C(N[C@H]1CCN(Cc2ccccc2)C[C@@H]1C(=O)NC1(c2ncccn2)CC1)c1cc(-c2ccc(F)cc2F)on1` [Example 2.071]: the IC50 is 8 nM. Compared with the last molecule, the IC50 is about 3.6-fold lower. On the same count and under the same terms, for `Cc1cc(CNC(=O)[C@@H]2CN(C3CCCCC3)CC[C@H]2NC(=O)c2cc(-c3ccc(F)cc3F)on2)n(C)n1` (racemic) [Example 1.054, rac-(3R*,4R*)-1-Cyclohexyl-4-{[5-(2,4-difluoro-phenyl)-isoxazole-3-carbonyl]-amino}-piperidine-3-carboxylic acid (2,5-dimethyl-2H-pyrazol-3-ylmethyl)-amide] the value was 311 nM; for `COCC(C)(C)NC(=O)[C@@H]1CN(C2CCCCC2)CC[C@H]1NC(=O)c1noc(-c2ccc(F)cc2F)n1` (racemic) [Example 1.152, rac-(3R*,4R*)-1-Cyclohexyl-4-{[5-(2,4-difluoro-phenyl)-[1,2,4]oxadiazole-3-carbonyl]-amino}-piperidine-3-carboxylic acid (2-methoxy-1,1-dimethyl-ethyl)-amide], 569 nM; for `O=C(N[C@H]1CCN(C2CCCC2)C[C@@H]1C(=O)NC1(c2ncccn2)CC1)c1ncc(-c2ccc(F)cc2F)o1` [Example 2.098], 94 nM.

Molecule `O=C(N[C@@H]1CCN(C2CCCC2)C[C@H]1C(=O)NC1(c2cccc[n+]2[O-])CC1)c1cc(-c2ccc(F)cc2F)on1` [Example 2.062a] had an IC50 of 298 nM. Regarding `C[C@@H]1CCC[C@H]1N1CC[C@@H](NC(=O)c2cc(-c3c(F)cc(F)cc3F)on2)[C@H](C(=O)N[C@H](C)c2cnccn2)C1` (relative stereo) [Example 1.132, (3R*,4R*)-1-((1RS,2RS)-2-Methyl-cyclopentyl)-4-{[5-(2,4,6-trifluoro-phenyl)-isoxazole-3-carbonyl]-amino}-piperidine-3-carboxylic acid ((R)-1-pyrazin-2-yl-ethyl)-amide], half-maximal inhibition (IC50) required 410 nM.

`CC(C)(C)CN1CC[C@H](NC(=O)c2cc(-c3ccc(F)cc3F)on2)[C@@H](C(=O)NC2(c3ncccn3)CC2)C1` [Example 2.069] showed a half-maximal inhibitory concentration (IC50) of 6 nM. On to `CC(C)N1CC[C@@H](NC(=O)c2cc(-c3ccc(F)cc3F)on2)[C@H](C(=O)N(C)CCc2ccccc2)C1` [Example 2.003], for which the IC50 is 34 nM. This IC50 is about 5.7-fold higher than that of the molecule before. On the same count and under the same terms, for `C[C@@H](NC(=O)[C@@H]1CN(CC2CC2)CC[C@H]1NC(=O)c1cc(-c2ccc(F)cc2F)no1)C1CCC1` (relative stereo) [Example 1.161, (3R*,4R*)-1-Cyclopropylmethyl-4-{[3-(2,4-difluoro-phenyl)-isoxazole-5-carbonyl]-amino}-piperidine-3-carboxylic acid ((R)-1-cyclobutyl-ethyl)-amide] the value was 105 nM; for `Cc1nc(CNC(=O)[C@@H]2CN(C3CCCCC3)CC[C@H]2NC(=O)c2cc(-c3ccc(F)cc3F)on2)cs1` (racemic) [Example 1.031, rac-(3R*,4R*)-1-Cyclohexyl-4-{[5-(2,4-difluoro-phenyl)-isoxazole-3-carbonyl]-amino}-piperidine-3-carboxylic acid (2-methyl-thiazol-4-ylmethyl)-amide], 855 nM. Consider `CCOC(=O)C1(NC(=O)[C@H]2CN(CC3CC3)CC[C@@H]2NC(=O)c2cc(-c3ccc(F)cc3F)on2)CC1` [Example 4.056], for which half-maximal inhibition (IC50) required 64 nM.

As to `O=C(N[C@H]1CCNC[C@@H]1C(=O)NC1(c2ncccn2)CC1)c1ncc(-c2ccc(F)cc2F)o1` [Example 2.096], half-maximal inhibition (IC50) required 634 nM. The molecule `Cc1cccnc1C(C)(C)CNC(=O)[C@@H]1CN(C2CCC2)CC[C@H]1NC(=O)c1cc(-c2ccc(F)cc2F)on1` [Example 4.086] had an IC50 of 472 nM. On the same count and under the same terms, for `O=C(N[C@H]1CCN(C2CCCC2)C[C@@H]1C(=O)NC1(c2ccncc2)CC1)c1cc(-c2ccc(F)cc2F)on1` [Example 4.026] the value was 15 nM. In turn, `O=C(N[C@@H]1CCN(C2CCC2)C[C@H]1C(=O)NCC1(c2ccccn2)CC1)c1cc(-c2ccc(F)cc2F)on1` [Example 4.093] registered an IC50 of 165 nM. Still for that read-out and setting: the value for `Cc1ccc(-c2cc(C(=O)N[C@H]3CCN(CC4CC4)C[C@@H]3C(=O)NC3(c4ncccn4)CC3)no2)c(C)c1` [Example 7.005, (3S,4S)-1-Cyclopropylmethyl-4-{[5-(2,4-dimethyl-phenyl)-isoxazole-3-carbonyl]-amino}-piperidine-3-carboxylic acid (1-pyrimidin-2-yl-cyclopropyl)-amide] was 36 nM. `CN(C)C(=O)[C@@H]1CN(C2CCCC2)CC[C@H]1NC(=O)c1cc(-c2ccc(F)cc2F)on1` [Example 2.019a] had an IC50 of 44 nM.

Consider `Cc1cccc([C@@H](C)NC(=O)[C@@H]2CN(C3CCCCC3)CC[C@H]2NC(=O)c2cc(-c3ccc(F)cc3F)on2)n1` (single isomer, unassigned) [Example 1.188b, (3R*,4R*)-1-Cyclohexyl-4-{[5-(2,4-difluoro-phenyl)-isoxazole-3-carbonyl]-amino}-piperidine-3-carboxylic acid [(R)-1-(6-methyl-pyridin-2-yl)-ethyl]-amide], for which the IC50 amounted to 519 nM. This IC50 lies about 12-fold higher than the previous one. Same read-out and setting: the value for `O=C(N[C@@H]1CCN(C2CCCCC2)C[C@H]1C(=O)N1CCC(O)C1)c1cc(-c2ccc(F)cc2F)on1` (relative stereo) [Example 1.028, 5-(2,4-Difluoro-phenyl)-isoxazole-3-carboxylic acid [(3R*,4R*)-1-cyclohexyl-3-((3RS)-3-hydroxy-pyrrolidine-1-carbonyl)-piperidin-4-yl]-amide] was 916 nM; that for `O=C(N[C@@H]1CCN(CC2CC2)C[C@H]1C(=O)NC1(c2ncccn2)CC1)c1cc(-c2ccccc2C(F)(F)F)on1` [Example 1.19] was 294 nM.

Staying with this assay, now noted: antagonistic effect on CXCR7; Tango CXCR7-bla U2OS cells; CXCL12/SDF1-α at its EC80; geometric mean.
`O=C(N[C@H]1CCN(CC2CC2)C[C@@H]1C(=O)NC1(c2ncccn2)CC1)c1cc(-c2ccccc2)on1` [Reference Example 3, (3S,4S)-1-Cyclopropylmethyl-4-[(5-phenyl-isoxazole-3-carbonyl)-amino]-piperidine-3-carboxylic Acid (1-pyrimidin-2-yl-cyclopropyl)-amide, reference compound] registered an IC50 of 1330 nM. This lies in the single-digit micromolar range.
